Data on 14 compounds can be found in US9708314B2, “Heterocyclic amide compound” (NISSAN CHEMICAL INDUSTRIES, LTD., priority 2013, dated 2017).

Holding throughout (format): in vivo
Data set [1] deals with Echinochloa oryzacola Vasing. Briefly: Test Example 1: herbicidal activity, application before weed generation in submerged conditions. Conditions: Application herbicide amount 320 g/ha; Seventeenth Table. From the text: (§1) [Test Example 1] Herbicidal Activity Test by Application Before Weed Generation in Submerged Conditions After alluvial soil was placed into 1/10000 are of Wagner pot, water was poured and mixed to form a submerged condition having a water depth of 4 cm. Seeds of Echinochloa oryzacola Vasing., Scirpus juncoides, and Monochoria vaginalis were sowed in a mixed manner in the above pot and thereafter 2.5 leaf stage Oryza sativa seedling was transplanted. On the day of sowing seeds, the emulsion agent containing the compound of the present invention prepared in accordance with Formulation Example 2 was diluted with water so as to be a predetermined herbicide amount and the diluted compound was applied to the surface of the water. The pot was placed in a greenhouse of 25° C. to 30° C. to grow plant. Three weeks after the herbicide application, effects on each plant were investigated in accordance with the following criteria. Criteria 5 Herbicidal ratio of 90% or more (almost completely withered) 4 Herbicidal ratio of 70% or more and less than 90% 3 Herbicidal ratio of 40% or more and less than 70% 2 Herbicidal ratio of 20% or more and less than 40% 1 Herbicidal ratio of 5% or more and less than 20% 0 Herbicidal ratio of 5% or less (almost no effect) A: Echinochloa oryzicola Vasing., B: Scirpus juncoides, C: Monochoria vaginalis, D: Leptochloa chinensis, E: Cyperus difformis, F: Digitaria ciliaris, G: Setaria viridis, H: Echinochloa crus-galli var. crus-galli, I: Avena fatua, J: Alopecurus myosuroides, K: Lolium multiflorum Lam., L: Apera spica-venti., M: Abutilon theophrasti, N: Amaranthus retroflexus, O: Chenopodium album, P: Stellaria media, Q: Galium spurium, R: Veronica persica, a: transplanted Oryza sativa, b: directly sowed Oryza sativa, c: Zea mays, d: Glycine max, e: Triticum aestivum, f: Beta vulgaris ssp. vulgaris, and g: Brassica campestris L. The application herbicide amount (g/ha) means an amount that a concentration is adjusted so that, when an application amount is converted into per hectare (1 ha), the herbicide is applied by the number of grams (g) of the described value.

A further data set concerns Monochoria vaginalis. Described as above. Conditions: Application herbicide amount 320 g/ha; Seventeenth Table.
Description: as §1

Data set [2] deals with transplanted Oryza sativa. Kind of data set: Test Example 1: effect on crop, application before weed generation in submerged conditions. Conditions: Application herbicide amount 320 g/ha; Seventeenth Table.
Description: as §1

The test system of data set [3] is directly sowed Oryza sativa. Briefly: Test Example 3: effect on crop by application to foliage (Wagner pot, water depth 0.1-0.5 cm). The following applies: Nineteenth Table; application to foliage; application herbicide amount 320 g/ha. The essentials: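 Visual 0–5 rating of herbicidal ratio, taken 3 weeks after foliar spray of a diluted emulsion formulation at rates expressed as g/ha. Plants had been sown in alluvial soil under 0.1–0.5 cm water and grown 14 days at 25–30 °C under glass before application.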

In the next data set the test system is Scirpus juncoides. Briefly: Test Example 1: herbicidal activity, application before weed generation in submerged conditions. The following applies: Application herbicide amount 320 g/ha; Seventeenth Table.
Description: as §1

Consider `CCCSc1nnc2c(C(=O)Nc3nnc(C)o3)ccc(C(F)(F)F)n12` [1-087], for which the “A: Echinochloa oryzicola Vasing. (herbicidal effect grade)” value in data set [1] is on record as 5 (Herbicidal ratio of 90% or more (almost completely withered)). Besides, the “C: Monochoria vaginalis (herbicidal effect grade)” value (“C: Monochoria vaginalis” for short) in the data set on Monochoria vaginalis was 3 (Herbicidal ratio of 40% or more and less than 70%). For the same compound, in data set [2], the “a: transplanted Oryza sativa (effect on crop grade)” value (shortened to “a: transplanted Oryza sativa”) was 0 (Herbicidal ratio of 5% or less (almost no effect)). The “b (effect on crop grade)” value in data set [3] was 1 (Herbicidal ratio of 5% or more and less than 20%).

With `Cc1nnc(NC(=O)c2ccc(C(F)(F)F)n3c(-c4ccc(Cl)nc4)nnc23)o1` [1-054], the “A: Echinochloa oryzicola Vasing. (herbicidal effect grade)” value in data set [1] is on record as 5 (Herbicidal ratio of 90% or more (almost completely withered)). Moreover, the “C: Monochoria vaginalis” value in the data set with Monochoria vaginalis was 4 (Herbicidal ratio of 70% or more and less than 90%). For the same compound, the “B: Scirpus juncoides (herbicidal effect grade)” value (“B: Scirpus juncoides” below) in the data set with Scirpus juncoides is 3 (Herbicidal ratio of 40% or more and less than 70%). Moreover, the “a: transplanted Oryza sativa” value in data set [2] was 2 (Herbicidal ratio of 20% or more and less than 40%). In addition, the “b (effect on crop grade)” value in data set [3] was 3 (Herbicidal ratio of 40% or more and less than 70%).

Consider `Cc1nnc(NC(=O)c2ccc(C(F)(F)F)n3c(NC(C)C)nnc23)o1` [1-090], for which the “A: Echinochloa oryzicola Vasing. (herbicidal effect grade)” value in data set [1] is 3 (Herbicidal ratio of 40% or more and less than 70%). For the same compound, in the data set on Monochoria vaginalis, the “C: Monochoria vaginalis” value was 2 (Herbicidal ratio of 20% or more and less than 40%). In addition, in the data set with Scirpus juncoides, the “B: Scirpus juncoides” value is 4 (Herbicidal ratio of 70% or more and less than 90%). In data set [2], the “a: transplanted Oryza sativa” value is given as 0 (Herbicidal ratio of 5% or less (almost no effect)). Besides, the “b (effect on crop grade)” value in data set [3] was 0 (Herbicidal ratio of 5% or less (almost no effect)).

With `C#CCSc1nnc2c(C(=O)Nc3nnc(C)o3)ccc(C(F)(F)F)n12` [1-065], the “A: Echinochloa oryzicola Vasing. (herbicidal effect grade)” value in data set [1] is reported as 5 (Herbicidal ratio of 90% or more (almost completely withered)). Further, in the data set on Monochoria vaginalis, the “C: Monochoria vaginalis” value is 2 (Herbicidal ratio of 20% or more and less than 40%). Also, in the data set with Scirpus juncoides, the “B: Scirpus juncoides” value was 3 (Herbicidal ratio of 40% or more and less than 70%). Moreover, in data set [2], the “a: transplanted Oryza sativa” value was 0 (Herbicidal ratio of 5% or less (almost no effect)). Moreover, the “b (effect on crop grade)” value in data set [3] is recorded as 0 (Herbicidal ratio of 5% or less (almost no effect)).

`C=CC[S+]([O-])c1nnc2c(C(=O)Nc3nnc(C)o3)ccc(C(F)(F)F)n12` (stereo not drawn) [1-074]: the “A: Echinochloa oryzicola Vasing. (herbicidal effect grade)” value in data set [1] is 2 (Herbicidal ratio of 20% or more and less than 40%). Besides, the “C: Monochoria vaginalis” value in the data set with Monochoria vaginalis is given as 0 (Herbicidal ratio of 5% or less (almost no effect)). The “B: Scirpus juncoides” value in the data set with Scirpus juncoides is 2 (Herbicidal ratio of 20% or more and less than 40%). For the same compound, the “a: transplanted Oryza sativa” value in data set [2] was 0 (Herbicidal ratio of 5% or less (almost no effect)). In addition, the “b (effect on crop grade)” value in data set [3] is 0 (Herbicidal ratio of 5% or less (almost no effect)).

`COc1cc(OC)cc(-c2nnc3c(C(=O)Nc4nnc(C)o4)ccc(C(F)(F)F)n23)c1` [1-070]: the “A: Echinochloa oryzicola Vasing. (herbicidal effect grade)” value in data set [1] was 5 (Herbicidal ratio of 90% or more (almost completely withered)). In the data set on Monochoria vaginalis, the “C: Monochoria vaginalis” value was 5 (Herbicidal ratio of 90% or more (almost completely withered)). Besides, the “B: Scirpus juncoides” value in the data set with Scirpus juncoides is recorded as 5 (Herbicidal ratio of 90% or more (almost completely withered)). The “a: transplanted Oryza sativa” value in data set [2] is 3 (Herbicidal ratio of 40% or more and less than 70%). Also, in data set [3], the “b (effect on crop grade)” value was 0 (Herbicidal ratio of 5% or less (almost no effect)).

For the compound `Cc1nnc(NC(=O)c2ccc(C(F)(F)C(F)(F)F)n3c(C(C)C)nnc23)o1` [1-066], in data set [1], the “A: Echinochloa oryzicola Vasing. (herbicidal effect grade)” value is recorded as 5 (Herbicidal ratio of 90% or more (almost completely withered)). In addition, the “C: Monochoria vaginalis” value with Monochoria vaginalis is 2 (Herbicidal ratio of 20% or more and less than 40%). Further, the “B: Scirpus juncoides” value in the data set on Scirpus juncoides is 4 (Herbicidal ratio of 70% or more and less than 90%). In addition, the “a: transplanted Oryza sativa” value in data set [2] was 2 (Herbicidal ratio of 20% or more and less than 40%). In data set [3], the “b (effect on crop grade)” value is given as 0 (Herbicidal ratio of 5% or less (almost no effect)).

For `COc1ccc(Cc2nnc3c(C(=O)Nc4nnc(C)o4)ccc(C(F)(F)F)n23)cc1` [1-069], the “A: Echinochloa oryzicola Vasing. (herbicidal effect grade)” value in data set [1] is 5 (Herbicidal ratio of 90% or more (almost completely withered)). In addition, the “C: Monochoria vaginalis” value with Monochoria vaginalis was 3 (Herbicidal ratio of 40% or more and less than 70%). In addition, the “B: Scirpus juncoides” value with Scirpus juncoides was 4 (Herbicidal ratio of 70% or more and less than 90%). Also, in data set [2], the “a: transplanted Oryza sativa” value is recorded as 0 (Herbicidal ratio of 5% or less (almost no effect)). Moreover, in data set [3], the “b (effect on crop grade)” value is 1 (Herbicidal ratio of 5% or more and less than 20%).

With `CCC[S+]([O-])c1nnc2c(C(=O)Nc3nnc(C)o3)ccc(C(F)(F)F)n12` (stereo not drawn) [1-092], the “A: Echinochloa oryzicola Vasing. (herbicidal effect grade)” value in data set [1] was 5 (Herbicidal ratio of 90% or more (almost completely withered)). Also, the “C: Monochoria vaginalis” value with Monochoria vaginalis was 4 (Herbicidal ratio of 70% or more and less than 90%). In addition, the “B: Scirpus juncoides” value in the data set with Scirpus juncoides is given as 5 (Herbicidal ratio of 90% or more (almost completely withered)). Besides, the “a: transplanted Oryza sativa” value in data set [2] is 3 (Herbicidal ratio of 40% or more and less than 70%). Further, in data set [3], the “b (effect on crop grade)” value is 4 (Herbicidal ratio of 70% or more and less than 90%).

For `CSCCc1nnc2c(C(=O)Nc3nnc(C)o3)ccc(C(F)(F)F)n12` [1-083], the “A: Echinochloa oryzicola Vasing. (herbicidal effect grade)” value in data set [1] was 2 (Herbicidal ratio of 20% or more and less than 40%). The “C: Monochoria vaginalis” value in the data set on Monochoria vaginalis was 3 (Herbicidal ratio of 40% or more and less than 70%). Moreover, the “B: Scirpus juncoides” value in the data set with Scirpus juncoides was 3 (Herbicidal ratio of 40% or more and less than 70%). For the same compound, the “a: transplanted Oryza sativa” value in data set [2] is 0 (Herbicidal ratio of 5% or less (almost no effect)). The “b (effect on crop grade)” value in data set [3] was 2 (Herbicidal ratio of 20% or more and less than 40%).

As to `Cc1nnc(NC(=O)c2ccc(C(F)(F)F)n3c(CC[S+](C)[O-])nnc23)o1` (stereo not drawn) [1-084], the “A: Echinochloa oryzicola Vasing. (herbicidal effect grade)” value in data set [1] was 2 (Herbicidal ratio of 20% or more and less than 40%). Also, in the data set with Monochoria vaginalis, the “C: Monochoria vaginalis” value was 2 (Herbicidal ratio of 20% or more and less than 40%). For the same compound, the “B: Scirpus juncoides” value in the data set on Scirpus juncoides was 3 (Herbicidal ratio of 40% or more and less than 70%). For the same compound, in data set [2], the “a: transplanted Oryza sativa” value is 0 (Herbicidal ratio of 5% or less (almost no effect)). Also, the “b (effect on crop grade)” value in data set [3] was 2 (Herbicidal ratio of 20% or more and less than 40%).

Regarding `Cc1nnc(NC(=O)c2ccc(C(F)(F)F)n3c(-c4cc(Cl)cc(Cl)c4)nnc23)o1` [1-071], the “A: Echinochloa oryzicola Vasing. (herbicidal effect grade)” value in data set [1] was 4 (Herbicidal ratio of 70% or more and less than 90%). Further, the “C: Monochoria vaginalis” value with Monochoria vaginalis was 4 (Herbicidal ratio of 70% or more and less than 90%). Also, the “B: Scirpus juncoides” value in the data set with Scirpus juncoides was 5 (Herbicidal ratio of 90% or more (almost completely withered)). The “a: transplanted Oryza sativa” value in data set [2] is 0 (Herbicidal ratio of 5% or less (almost no effect)). The “b (effect on crop grade)” value in data set [3] was 0 (Herbicidal ratio of 5% or less (almost no effect)).

With `Cc1nnc(NC(=O)c2ccc(C(F)(F)F)n3c(CCS(C)(=O)=O)nnc23)o1` [1-085], in data set [1], the “A: Echinochloa oryzicola Vasing. (herbicidal effect grade)” value was 3 (Herbicidal ratio of 40% or more and less than 70%). For the same compound, in the data set with Monochoria vaginalis, the “C: Monochoria vaginalis” value was 3 (Herbicidal ratio of 40% or more and less than 70%). The “B: Scirpus juncoides” value in the data set with Scirpus juncoides is 4 (Herbicidal ratio of 70% or more and less than 90%). Further, the “a: transplanted Oryza sativa” value in data set [2] is 3 (Herbicidal ratio of 40% or more and less than 70%). Further, the “b (effect on crop grade)” value in data set [3] is 3 (Herbicidal ratio of 40% or more and less than 70%).

As for `Cc1nnc(NC(=O)c2ccc(C(F)(F)F)n3c(N(C)c4ccccc4)nnc23)o1` [1-086], the “A: Echinochloa oryzicola Vasing. (herbicidal effect grade)” value in data set [1] was 5 (Herbicidal ratio of 90% or more (almost completely withered)). In addition, in the data set with Monochoria vaginalis, the “C: Monochoria vaginalis” value was 4 (Herbicidal ratio of 70% or more and less than 90%). The “B: Scirpus juncoides” value with Scirpus juncoides was 4 (Herbicidal ratio of 70% or more and less than 90%). The “a: transplanted Oryza sativa” value in data set [2] is reported as 5 (Herbicidal ratio of 90% or more (almost completely withered)). Further, the “b (effect on crop grade)” value in data set [3] is 0 (Herbicidal ratio of 5% or less (almost no effect)).
